Experimental data taken from patent publication US10011614B2, “Bis-β-carboline compound and preparation method, pharmaceutical composition and use thereof” (XINJIANG HUASHIDAN PHARMACEUTICAL RESEARCH CO., LTD., priority 2012, dated 2018).

Key:
[1] = tested on: KB (human oral epidermoid carcinoma cells); assay: Antitumor screening in vitro, MTT assay, KB; assay type: cell-based; conditions: 48 hours
Method: (§1) Cell lines: BGC (human gastric cancer cells), A375 (human malignant melanoma cells), 769-P (human renal carcinoma cells), KB (human oral epidermoid carcinoma cells), SK-OV-3 (human ovarian cancer cells), etc, were selected, and the test method was the MTT assay. Cisplatin was as a positive control.
(§2) Specific methods are as follows: cells growing well in the logarithmic phase were seeded in 96-well plates at a concentration of 1×10^4 cells/ml, and then were placed in 37° C., containing 5% CO2 incubator for 24 hours. After discarding the old solution, changed fresh medium, and added sterilization treatment compound, and then cultured for 48 hours. After discarding the culture medium, 20 ul RPMI1640 medium containing 5 mg/ml MTT were added to each well in 96-well plates and cells were cultured for 4 hours. After the supernatant was carefully removed, 100 μl DMSO was added to each well, and the plates were Oscillated about 10 min to dissolve the precipitate, followed by detecting OD value in wavelength 490 nm by the microplate reader. Cell survival rate for each sample concentrations was determined by the following formula: The mean survival rate %=the average OD value of sample group/the average OD value of control group×100%
(§3) Morphological studies by mapping with the logarithm of the drug concentration and the mean survival rate % of each sample to obtain IC50 values for each sample.

[2] = tested on: BGC (human gastric cancer cells); assay: Antitumor screening in vitro, MTT assay, BGC; assay type: cell-based; conditions: 48 hours
Method: as §1, §2, §3

[3] = tested on: 769-P (human renal carcinoma cells); assay: Antitumor screening in vitro, MTT assay, 769-P; assay type: cell-based; conditions: 48 hours, 769-P cells
Method: as §1, §2, §3

[4] = tested on: A375 (human malignant melanoma cells); assay: Antitumor screening in vitro, MTT assay, A375; assay type: cell-based
Method: as §1, §2, §3

[5] = in vivo; conditions: both, Kunming, mouse, in vivo, ip
Method: (§4) Solvent: 0.9% saline and 0.5% CMC-Na solution. According to pre-test results, design 5 dose gradient for each sample, dose spacing was 0.8 times. […] Experimental volume is 0.5 ml/20 g mouse. A single intraperitoneal administration is used. Kunming mice were taken and grouped randomly by gender, and intraperitoneal administration according to dose designation was set to observe the immediate reaction after administration in mice. Dead animals were dissected to observe, surviving animals continued to observe two weeks, and the animal deaths in two weeks were recorded. After two weeks, surviving animals were dissected, observed substantial organ lesions, and the organs having substantive lesions were further for histological examination. According to the number of deaths in each group of animals, calculating the median lethal dose (LD50 value) by Bliss method, and further, calculating the maximum tolerated dose (MTD) for less toxic compounds.

[6] = tested on: SK-OV-3 (human ovarian cancer cells); assay: Antitumor screening in vitro, MTT assay, SK-OV-3; assay type: cell-based; conditions: 48 hours, SK-OV-3 cells
Method: as §1, §2, §3

[7] = tested on: Kunming mice; assay: Acute toxicity test in mice (LD50); conditions: Kunming mice, single intraperitoneal administration, observed two weeks, Bliss method
Method: as §4

With `c1ccc2c(c1)c1ccncc1n2CCCCn1c2ccccc2c2ccncc21` [Compound 1, 1,4-bis(β-carboline-9-yl) butane] the IC50 ([1]; Homo sapiens) was > 300 µM, the IC50 ([2]; Homo sapiens) was 59.7 µM and the IC50 ([3]; Homo sapiens) was 199 µM. The IC50 ([4]; Homo sapiens, A-375, 48 hours) was > 300 µM, the LD50 at 2 weeks [5] was 200 mg/kg and the IC50 ([6]; Homo sapiens) was > 300 µM.
With `Cc1nccc2c3ccccc3n(CCCCn3c4ccccc4c4ccnc(C)c43)c12` [Compound 7, 1,4-bis(1-methyl-β-carboline-9-yl) butane] the IC50 ([1]; Homo sapiens) was 6.4 µM, the IC50 ([2]; Homo sapiens) was 22.3 µM and the IC50 ([3]; Homo sapiens) was 6.5 µM. The IC50 ([4]; Homo sapiens, A-375, 48 hours) was 13.1 µM, the LD50 at 2 weeks [5] was 200 mg/kg and the IC50 ([6]; Homo sapiens) was 4.8 µM.
For `Cc1nccc2c3ccccc3n(CCCCCCn3c4ccccc4c4ccnc(C)c43)c12` [Compound 9, 1,6-bis(1-methyl-β-carboline-9-yl) hexane], the IC50 ([1]; Homo sapiens) was > 300 µM, the IC50 ([2]; Homo sapiens) was > 300 µM and the IC50 ([3]; Homo sapiens) was 51.7 µM. The IC50 ([4]; Homo sapiens, A-375, 48 hours) was > 300 µM, the LD50 at 2 weeks [5] was 200 mg/kg and the IC50 ([6]; Homo sapiens) was 96.8 µM.
For `Cc1nccc2c3ccccc3n(CCCCCCCCn3c4ccccc4c4ccnc(C)c43)c12` [Compound 11, 1,8-bis(1-methyl-β-carboline-9-yl) octane], the IC50 ([1]; Homo sapiens) was > 300 µM, the IC50 ([2]; Homo sapiens) was > 300 µM and the IC50 ([3]; Homo sapiens) was 3.1 µM. For the same compound, the IC50 ([4]; Homo sapiens, A-375, 48 hours) was > 300 µM, the LD50 at 2 weeks [5] was 200 mg/kg and the IC50 ([6]; Homo sapiens) was > 300 µM.
For `COc1ccc2c3ccnc(C)c3n(CCCCn3c4cc(OC)ccc4c4ccnc(C)c43)c2c1` [Compound 14, 1,4-bis(7-methoxy-1-methyl-β-carboline-9-yl) butane], the IC50 ([1]; Homo sapiens) was 2.8 µM, the IC50 ([2]; Homo sapiens) was 75.7 µM and the IC50 ([3]; Homo sapiens) was 65.6 µM. It also gave an IC50 ([4]; Homo sapiens, A-375, 48 hours) of 6.2 µM, an LD50 at 2 weeks [5] of 50 mg/kg and an IC50 ([6]; Homo sapiens) of 7.1 µM.
For `COc1ccc2c3ccnc(C)c3n(CCCCCCCn3c4cc(OC)ccc4c4ccnc(C)c43)c2c1` [Compound 17, 1,7-bis(7-methoxy-1-methyl-β-carboline-9-yl) heptane], the IC50 ([1]; Homo sapiens) was 155 µM, the IC50 ([2]; Homo sapiens) was > 300 µM and the IC50 ([3]; Homo sapiens) was > 300 µM. For the same compound, the IC50 ([4]; Homo sapiens, A-375, 48 hours) was 35.3 µM, the LD50 at 2 weeks [5] was 200 mg/kg and the IC50 ([6]; Homo sapiens) was 11.7 µM.
With `COc1cc(-c2nccc3c4ccccc4n(CCCCCCn4c5ccccc5c5ccnc(-c6cc(OC)c(OC)c(OC)c6)c54)c23)cc(OC)c1OC` [Compound 19, 1,6-bis[1-(3,4,5-trimethoxy)phenyl-β-carboline-9-yl) hexane] the IC50 [1] was > 300 µM, the IC50 [2] was > 300 µM and the IC50 [3] was 16.8 µM. For the same compound, the IC50 ([4]; 48 hours) was 5.9 µM, the acute toxicity LD50 [7] was 200 mg/kg and the IC50 [6] was > 300 µM.
With `Cc1nccc2c3cc(Br)ccc3n(CCCCC(C)n3c4ccc(Br)cc4c4ccnc(C)c43)c12` (stereo not drawn) [Compound 21, 1,5-bis(6-bromo-1-methyl-β-carboline-9-yl) hexane] the IC50 ([1]; Homo sapiens) was > 300 µM, the IC50 ([2]; Homo sapiens) was > 300 µM and the IC50 ([3]; Homo sapiens) was 4.3 µM. For the same compound, the IC50 ([4]; Homo sapiens, A-375, 48 hours) was > 300 µM, the IC50 ([6]; Homo sapiens) was > 300 µM and the melting point was 208 to 209 °C.
With `Cc1nccc2c3cc(Br)ccc3n(CCCCCCn3c4ccc(Br)cc4c4ccnc(C)c43)c12` [Compound 22, 1,6-bis(6-bromo-1-methyl-β-carboline-9-yl) hexane] the IC50 ([1]; Homo sapiens) was > 300 µM, the IC50 ([2]; Homo sapiens) was > 300 µM and the IC50 ([3]; Homo sapiens) was > 300 µM. For the same compound, the IC50 ([4]; Homo sapiens, A-375, 48 hours) was > 300 µM, the LD50 at 2 weeks [5] was 200 mg/kg and the IC50 ([6]; Homo sapiens) was 63.4 µM.
With `CCCCOc1ccc2c3ccnc(C)c3n(CCCCn3c4cc(OCCCC)ccc4c4ccnc(C)c43)c2c1` [Compound 23, 1,4-bis(7-n-butoxy-1-methyl-β-carboline-9-yl) butane] the IC50 ([1]; Homo sapiens) was 6.8 µM, the IC50 ([2]; Homo sapiens) was 8.5 µM and the IC50 ([3]; Homo sapiens) was > 300 µM. The IC50 ([4]; Homo sapiens, A-375, 48 hours) was 3.8 µM, the IC50 ([6]; Homo sapiens) was 5.5 µM and the melting point was 193 to 194 °C.
With `Cc1nccc2c3ccc(OC(C)C)cc3n(CCCCCCCCCn3c4cc(OC(C)C)ccc4c4ccnc(C)c43)c12` [Compound 26, 1,9-bis(7-isopropoxy-1-methyl-β-carboline-9-yl) nonane] the IC50 ([1]; Homo sapiens) was 112 µM, the IC50 ([2]; Homo sapiens) was > 300 µM and the IC50 ([3]; Homo sapiens) was 40 µM. The IC50 ([4]; Homo sapiens, A-375, 48 hours) was 43.3 µM, the LD50 at 2 weeks [5] was 200 mg/kg and the IC50 ([6]; Homo sapiens) was 101 µM.
With `CCOC(=O)c1cc2c3ccccc3n(CCCCCCn3c4ccccc4c4cc(C(=O)OCC)nc(-c5cc(OC)c(OC)c(OC)c5)c43)c2c(-c2cc(OC)c(OC)c(OC)c2)n1` [Compound 27, 1,6-bis[1-(3,4.5-trimethoxy)phenyl-β-carboline-β-ethyoxylcarbonyl-9-yl]hexane] the acute toxicity LD50 [7] was 300 mg/kg.
For `c1cncc(-c2nccc3c4ccccc4n(CCCCn4c5ccccc5c5ccnc(-c6cccnc6)c54)c23)c1` [Compound 31, 1,4-bis[1-(pyridine-3-yl)-β-carboline-9-yl) butane], the IC50 ([1]; Homo sapiens) was > 300 µM, the IC50 ([2]; Homo sapiens) was 270 µM and the IC50 ([3]; Homo sapiens) was > 300 µM. It also gave an IC50 ([4]; Homo sapiens, A-375, 48 hours) of 85.3 µM, an IC50 ([6]; Homo sapiens) of 36.8 µM and a melting point of 224 to 225 °C.
For `c1ccc2c(c1)c1ccnc(-c3ccsc3)c1n2CCCCCCn1c2ccccc2c2ccnc(-c3ccsc3)c21` [Compound 33, 1,6-bis[1-(3-thienyl)-β-carboline-9-yl) hexane], the IC50 ([1]; Homo sapiens) was > 300 µM, the IC50 ([2]; Homo sapiens) was > 300 µM and the IC50 ([3]; Homo sapiens) was > 300 µM. The IC50 ([4]; Homo sapiens, A-375, 48 hours) was > 300 µM, the IC50 ([6]; Homo sapiens) was 67.6 µM and the melting point was 198 to 199 °C.
For `c1ccc2c(c1)c1ccnc(-c3ccsc3)c1n2CCCCCCCCn1c2ccccc2c2ccnc(-c3ccsc3)c21` [Compound 34, 1,8-bis[1-(3-thienyl)-β-carboline-9-yl) octane], the IC50 ([1]; Homo sapiens) was > 300 µM, the IC50 ([2]; Homo sapiens) was > 300 µM and the IC50 ([3]; Homo sapiens) was > 300 µM. The IC50 ([4]; Homo sapiens, A-375, 48 hours) was 32.1 µM, the LD50 at 2 weeks [5] was 250 mg/kg and the IC50 ([6]; Homo sapiens) was > 300 µM.
With `CC(C)c1nccc2c3ccccc3n(CCCCCCn3c4ccccc4c4ccnc(C(C)C)c43)c12` [Compound 39, 1,6-bis(1-isopropyl-β-carboline-9-yl) hexane] the IC50 ([1]; Homo sapiens) was 253 µM, the IC50 ([2]; Homo sapiens) was > 300 µM and the IC50 ([3]; Homo sapiens) was 18.5 µM. For the same compound, the IC50 ([4]; Homo sapiens, A-375, 48 hours) was 53.5 µM, the IC50 ([6]; Homo sapiens) was 31.8 µM and the melting point was 241 to 242 °C.
